Marks after values point to notes of the source that are not given here.
What was measured:
[1] = tested on: human colon carcinoma cell line, SW-480; test: Growth inhibition, Sulforhodamine B (SRB) protein binding assay; assay type: cell-based; details: SW-480 cell line, six days continuous exposure
Experimental: These compounds were assayed for their growth inhibitory activity on the human colon carcinoma cell line, SW-480 obtained from ATCC (Rockville, Md.), to ascertain the degree of growth inhibition. Growth inhibition of this cell line is indicative of a benefit on precancerous lesions and neoplasms. The cell line and growth assay employed for these experiments are well characterized, and are used to evaluate the anti-neoplastic properties of NSAIDs. The assay is used by the United States National Cancer Institute in its screening program for new anti-cancer drugs.
Drug stock solutions were made in 100% DMSO then diluted with RPMI media for cell culture testing. All drug solutions were prepared fresh on the day of testing. The cultured cells were obtained at passage #99 and grown in RPMI media supplemented with 5% fetal calf serum, and 2 mM glutamine, 100 U/ml penicillin, 100 U/ml streptomycin, and 0.25 μg/ml amphotericin. The cultures were maintained in a humidified atmosphere of 95% air and 5% CO2 at 37° C. The cultures were passaged at preconfluent densities using a solution of 0.05% trypsin and 0.53 mM EDTA. Cells were plated at 1000 cells/well for 96 well flat-bottom microtiter plates.
Tumor cell growth inhibition was assessed using the Sulforhodamine B (SRB) protein binding assay. In this assay, tumor cells were plated in 96-well plates and treated with drug-containing media for six days (continuous exposure). For each plate, 6 wells were designated as no treatment controls, six wells as vehicle (0.1% DMSO) controls, and the remaining wells for drug dilutions with three wells per drug concentration. At the end of the exposure period, the cells were fixed and stained with sulforhodamine B, a protein binding dye. The dye was then solubilized, and the optical density of the resulting solution was determined on a 96-well plate reader. The mean dye intensity of the treated wells was then divided by the mean dye intensity in the control wells (6 wells of each) to determine the effect of the drug on the cells. Dye intensity is proportional to the number of cells or amount of protein per well. The resultant “percent inhibition” value then represents the degree of growth inhibition caused by the drug.
For each experiment, an IC50 value was determined and used for comparative purposes. This value is equivalent to the concentration of drug needed to inhibit tumor cell growth by 50%. IC50 values were obtained graphically by connecting the mean values for each drug concentration tested. Each experiment included at least three wells per drug concentration. Concentration was plotted on a log scale on the X-axis.

[2] = tested on: HT-29 human colon carcinoma cells; test: Apoptosis by morphology (acridine orange/ethidium bromide, condensed chromatin); assay type: cell-based; details: HT-29 cells
Experimental: Apoptosis was measured using an assay of cell death based on morphological characteristics of apoptotic cells (i.e., condensed chromatin). Drug preparation and cell culture conditions were the same as for the SRB assay described above, except that HT-29 human colon carcinoma cells were employed/Confluent cultures were established in 12.5 cm^2 flasks by plating 0.5×10^6 cells/flask. The cultures were assayed for apoptosis by fluorescent microscopy following labeling with acridine orange and ethidium bromide. Floating and attached cells were collected by trypsinization and washed three times in PBS. One ml aliquots were centrifuged (3 g). The pellet was resuspended in 25 μl media and 1 μl of a dye mixture containing 100 μg/ml acridine orange and 100 μg/ml ethidium bromide prepared in PBS and mixed gently. Ten μl of mixture was placed on a microscope slide and covered with a 22 mm^2 coverslip and examined under 40×dry objectives using epillumination and filter combination.
An observer blinded to the identity of the treatments scored at least 100 cells per sample. Apoptotic cells were identified by nuclear condensation of chromatin stained by the acridine orange or ethidium bromide.

[3] = molecular target: T1, COX I (Ovis aries, UniProt P05979); test: Cyclooxygenase (COX) inhibition, purified COX; assay type: biochemical; details: purified COX from ram seminal vesicles; for COX I % Inhibition (values marked *): values marked *: 1000 μM test compound; for COX I % Inhibition (100 μM): 100 μM test compound, arachidonic acid 100 μM
T1 construct: The COX was purified form ram seminal vesicles; from tissue; host or cells: ram seminal vesicles
T1 sequence (P05979 25-600): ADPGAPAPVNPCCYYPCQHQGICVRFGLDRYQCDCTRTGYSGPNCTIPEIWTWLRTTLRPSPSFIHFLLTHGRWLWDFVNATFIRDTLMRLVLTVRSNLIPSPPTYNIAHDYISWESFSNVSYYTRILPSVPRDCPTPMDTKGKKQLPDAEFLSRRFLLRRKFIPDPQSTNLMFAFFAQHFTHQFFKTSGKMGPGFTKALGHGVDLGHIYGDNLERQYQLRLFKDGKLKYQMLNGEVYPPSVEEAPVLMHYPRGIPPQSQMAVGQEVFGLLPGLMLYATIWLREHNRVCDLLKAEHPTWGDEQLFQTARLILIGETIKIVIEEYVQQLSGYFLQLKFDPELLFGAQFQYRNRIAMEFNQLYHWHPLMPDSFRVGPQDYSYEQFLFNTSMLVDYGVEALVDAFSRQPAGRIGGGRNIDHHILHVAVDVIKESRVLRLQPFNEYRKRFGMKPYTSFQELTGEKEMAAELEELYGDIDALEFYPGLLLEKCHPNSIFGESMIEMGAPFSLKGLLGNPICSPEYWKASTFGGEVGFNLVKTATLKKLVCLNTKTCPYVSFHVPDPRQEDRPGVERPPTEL
How it was run: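 Ram seminal vesicle COX, purified, was incubated 2.0 min at 37° C with 100 μM arachidonic acid with or without test compounds. Reactions stopped with TCA; activity read as absorbance at 530 nm.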

[4] = tested on: SW-480 colon adenocarcinoma cells; test: Apoptosis by DNA fragmentation (Cell Death Detection ELISA plus); assay type: cell-based, human; details: SW-480 cells, 48 hrs; for EC50: by software or estimated from effective concentration range; for DNA Fragmentation FS (100 μM): fold stimulation FS=ODmax/ODveh
Experimental: Apoptosis was also measured based on the amount of fragmented DNA contained in cell lysates. Briefly, SW-480 colon adenocarcinoma cells were plated in 96-well microtitre plates (“MTP”) at a density of 10K cells/well in 180 μl and incubated for 24 hrs. Cells were then treated with 20 μl aliquots of appropriately diluted compound, and allowed to incubate for an additional 48 hrs.
After the incubation, samples were prepared according to the following steps. The MTP was centrifuged (15 min., 1000 rpm) and the supernatant was carefully removed by fast inversion of the MTP. The cell pellents in each well were then resuspended in ^200 μl lysis buffer and incubated for 45 min. at room temperature to lyse the cells. The lysates were then centrifuged (15 min., 1000 rpm) and 20 μl aliquots of the supernatant (=cytoplasmic fraction) were transferred into the streptavidin coated MTP for analysis. Care was taken not to shake the lysed pellets in the MTP (=cell nucleii containing high molecular weight, unfragmented DNA). Samples were analyzed immediately, because storage at 4 C or −20 C reduces the ELISA-signals.
Samples were then processed according to a DNA fragmentation assay protocol, and dose-response curves were generated based on optical density readings. Quantification of DNA was done by a commercially available photometric enzyme-immunoassay manufactured by Mannheim-Boehringer under the name “Cell Death Detection ELISA^plus”. The assay is based on a quantitative sandwich-enzyme-immunoassay-principle using mouse monoclonal antibodies directed against DNA and histones, respectively. This allows the specific determination of mono and oligonucleosomes in the cytoplasmatic fraction of cell lysates. In brief, the assay procedure is as follows. The sample (cell-lysate, serum, culture-supernatant etc.) is placed into a streptavidin-coated MTP. Subsequently, a mixture of anti-histone-biotin and anti-DNA-POD are added and incubated for 2 hours. During the incubation period, the anti-histone antibody binds to the histone-component of the nucleosomes and simultaneously fixes the immunocomplex to the streptavidin-coated MTP via its biotinylation. Additionally, the anti-DNA-POD antibody reacts with the DNA component of the nucleosomes. After removal of unbound antibodies by a washing step, the amount of nucleosomes is quantified by the POD retained in the immunocomplex. POD is determined photometrically with ABTS® (2,2′-Azino-di[3-ethylbenzthiazolin-sulfonat])* as substrate.
Fold stimulation (FS=ODmax/ODveh), an indicator of apoptotic response, was determined for each compound tested. EC50 values were determined either specifically by data analysis software, or by estimates based on the effective concentration range of each compound (ECR=min. effective dose-min. dose to peak effect). These FS and EC50 values for the tested compounds are listed above in Table 6.

SMILES | IC50 [1] | COX I % Inhibition (values marked *) [3] | COX I % Inhibition (100 μM) [3] | Morphology % Apoptotic Cells (1 μM) [2] | EC50 [4] | DNA Fragmentation FS (100 μM) [4]
COc1cc(/C=C2/C(C)=C(CC(=O)NCCCCc3ccccc3)c3cc(F)ccc32)cc(OC)c1OC [Example 41, (Z)-5-fluoro-2-methyl-1-(3,4,5-trimethoxybenzylidene)-3-(N-4-phenylbutyl)-indenylacetamide] | > 10000 nM | 59* % | – | 30% | > 10000 nM | <2
COc1cc(/C=C2/C(C)=C(CC(=O)NCCCN(C)C)c3cc(F)ccc32)cc(OC)c1OC [Example 44, (Z)-5-fluoro-2-methyl-1-(3,4,5-trimethoxybenzylidene)-3-(N-3-dimethylaminopropyl)-idenylacetamide] | > 10000 nM | 51* % | – | 25% | > 10000 nM | 2.7
COc1cc(/C=C2/C(C)=C(CC(=O)NCc3ccccn3)c3cc(F)ccc32)cc(OC)c1OC [Example 48] | 500 nM | – | <25% | 63% | 500 nM | 2.5
COc1cc(/C=C2/C(C)=C(CC(=O)NCc3c(F)c(F)c(F)c(F)c3F)c3cc(F)ccc32)cc(OC)c1OC [Example 51, (Z)-5-fluoro-2-methyl-1-(3,4,5-trimethoxybenzylidene)-3-(N-pentafluorobenzyl)-idenylacetamlde] | 2250 nM | <25* % | – | 40% | > 10000 nM | <2
COc1ccc(/C=C2/C(C)=C(CC(=O)NCc3ccccc3)c3cc(F)ccc32)c(OC)c1OC [Example 57, (Z)-5-fluoro-2-methyl-1-(2,3,4-trimethoxybenzylidene)-3-(N-benzyl)-indenylacetamide] | 260 nM | – | <25% | 73% | 300 nM | <2
COc1cc(OC)c(OC)cc1/C=C1/C(C)=C(CC(=O)NCc2ccccc2)c2cc(F)ccc21 [Example 58, (Z)-5-fluoro-2-methyl-1-(2,4,5-trimethoxybenzylidene)-3-(N-benzyl)-indenylacetamide] | 980 nM | – | <25% | 52% | 700 nM | 2.5

Now from value to molecule, other results behind:

IC50 [1] | COX I % Inhibition (values marked *) [3] | COX I % Inhibition (100 μM) [3] | SMILES | Morphology % Apoptotic Cells (1 μM) [2] | EC50 [4] | DNA Fragmentation FS (100 μM) [4]
690 nM | 49* % | – | COc1cc(/C=C2/C(C)=C(CC(=O)N[C@H](C)c3ccccc3)c3cc(F)ccc32)cc(OC)c1OC [Example 42, (Z)-5-fluoro-2-methyl-1-(3,4,5-trimethoxybenzylidene)-3-(N-(R)-1-phenethyl)-indenylacetamide] | <20% | 3000 nM | 3.8
> 10000 nM | 36* % | – | COc1cc(/C=C2/C(C)=C(CC(=O)N[C@@H](C)c3ccccc3)c3cc(F)ccc32)cc(OC)c1OC [Example 43, (Z)-5-fluoro-2-methyl-1-(3,4,5-trimethoxybenzylidene)-3-(N-(S)-1-phenylethyl)-indenylacetamide] | 25% | > 10000 nM | <2
> 10000 nM | 56* % | – | COc1cc(/C=C2/C(C)=C(CC(=O)N[C@H](O)Cc3ccccc3)c3cc(F)ccc32)cc(OC)c1OC [Example 45, (Z)-5-fluoro-2-methyl-1-(3,4,5-trimethoxybenzylidene)-3-(N-(R)-1-hydroxy-2-phenylethyl)-idenylacetamide] | 40% | > 10000 nM | 3.4
> 10000 nM | 98* % | – | COc1cc(/C=C2/C(C)=C(CC(=O)N[C@@H](O)Cc3ccccc3)c3cc(F)ccc32)cc(OC)c1OC [Example 46, (Z)-5-fluoro-2-methyl-1-(3,4,5-trimethoxybenzylidene)-3-(N-(S)-1-hydroxy-2-phenylethyl)-idenylacetamide] | 20% | > 10000 nM | 4.8
4100 nM | 37* % | – | COc1cc(/C=C2/C(C)=C(CC(=O)N(Cc3ccccc3)C(C)O)c3cc(F)ccc32)cc(OC)c1OC (stereo not shown) [Example 47, (Z)-5-fluoro-2-methyl-1-(3,4,5-trimethoxybenzylidene)-3-(N-benzyl-N-(1-hydroxyethyl))-idenylacetamide] | 20% | 5700 nM | 4.4
